Values of other authors as cited in paper PMC5454779 (Biochemistry, 2011).

Molecular target: ssDNA
Details: read-out: Kd of cold shock protein A with ssDNA; single OB-fold; ref [9]

## cold shock protein A: cold shock protein consisting of a single OB-fold
  Kd: 6 µM
